Series [1] is described as follows: solubility of crystalline Form I in media (water) at 37° C. Format: physicochemical. On the procedure:
Solubility of crystalline Form I was evaluated by weighing about 10 mg of crystalline Form I into 2 mL of media, and then stirring the suspension at 37° C. for 24 hours. At 1, 4 and 24 hours, the suspensions were filtered, and the filtrates were analyzed by HPLC and pH.

Series [2] can be described thus: hygroscopicity of crystalline form. It counts as physicochemical.
Series [3] is described as follows: solid stability at 40° C./75% RH and 25° C./60% RH for 7 days (HPLC purity, XRPD). Format: physicochemical. As to conditions: for physical and chemical stability: 25° C. 60% RH and 40° C. 75% RH for 7 days. On the procedure:
Solid stability was evaluated at 40° C./75RH and 25° C./60% RH for 7 days.

Series [4] has as its target Full length wild-type cereblon CRBN (Homo sapiens (Human), UniProt Q96SW2). Nature of the series: fluorescence polarization (FP) homogeneous assay, cereblon binding. As to conditions: CRBN 80.0 nM, probe 5 nM, FP read after 12 hours, read-out: rFP IC50. On the procedure:
Compound activity was monitored in a fluorescence polarization (FP) homogeneous assay using 1-[5-({2-[2-(2-{[2-(2,6-dioxopiperidin-3-yl)-1,3-dioxo-2,3-dihydro-1H-isoindol-4-yl]oxy}acetamido) ethoxy]ethyl}carbamoyl) pentyl]-3,3-dimethyl-2-[(1E,3E)-5-[(2E)-1,3,3-trimethyl-5-sulfo-2,3-dihydro-1H-indol-2-ylidene]penta-1,3-dien-1-yl]-3H-indol-1-ium-5-sulfonate as a fluorescent probe. Unless otherwise stated, all reagents were purchased from Sigma Aldrich. Enzymatic reactions were conducted in Perkin-Elmer Black 384 well ProxiPlate Plus (catalogue no. 6008269) in 10 μL total volume. Full length wild-type cereblon CRBN (80.0 nM, 10 μL) was incubated in assay buffer containing 20 mM HEPES (pH 8.0), […], 0.5 mM TCEP and 0.05% Tween 20 in the presence or absence of compound (300 nL). Inhibitors were stored as 10 mM DMSO stocks in an inert environment (low humidity, dark, low oxygen, room temperature) using the Storage Pod System. Compounds and DMSO were dispensed using the Echo E5XX (Labcyte Inc. USA) to give concentrations from 300 to 0.937 or 3000 to 9.3 nM in a 12 data point curve. […] FP was measured after a period of 12 hours using a Pherastar plate reader (BMG Labtech, Germany) exciting at 590 nm and measuring the amount of parallel and perpendicular light at 675 nm. […]
(In general: Polarisation of emitted light reports the rotation of a fluorescent probe.)

For the next series, the target named is GSPT1 (Homo sapiens (Human), UniProt P15170+Q96SW2). The series can be described thus: immunofluorescence assay for GSPT1 degradation in CAL-51 cells. As to conditions: 6 hours treatment. It counts as cell-based. On the procedure:
The representative compounds were tested in an immunofluorescence assay for their activity to bind to degrade GSPT1. CAL-51 cells were purchased from DSMZ (cat. Number ACC302), sub-cultured in 90% Dulbecco's MEM (4.5 g/L glucose, Gibco 11965)+10% heat inactivated FBS (BioConcept, 2-01F136I) and incubated at 37° C., 5% CO2. For the assay, imaging microtiterplate Cell Carrier 96 Ultra (Perkin Elmer 6055302) were pre-coated with Fibronectin (Sigma F085, 30 μl at 0.2 μg/ml) in PBS (100 μl, Gibco 14190) for 45 min at room temperature, rinsed with PBS and CAL-51 cells (30K cells/well) were plated and let to adhere overnight. Cells were treated with compounds typically using a serial dilution ranging from 30 μM to 0.1 nM for 6 hours. […]
Primary antibody (human GSPT1, Sigma HPA052488) was diluted in blocking buffer (dil.1/300, 35 μl/well) and incubated with the cells overnight at 4° C. […] Fluorescence intensity of Alexa-Fluor 488 (GSPT1), Alexa-Fluor 647 (Actin) and DAPI (Nucleus) were measured. […] The outline of the cells was determined analogously from the sum of the normalized, smoothed DAPI and Actin channel, starting from each nucleus.
The Alexa-Fluor 488 (GSPT1) signal intensity in each cell was finally measured, in order to obtain a Mean intensity per cell. GSPT1 degradation (DC50) was calculated after normalization to controls and data import in CDD vault Database, using non-linear regression. […]

“And” between values parts separate entries of the source, which are not always exact repeats. Equal values may be shown once. Read-outs that look alike come from different tables or passages of the source. A value given as a limit tells only on which side of the number the result lay.

For orientation: solubility means how much of the substance goes into solution per volume. As a reminder, the IC50 is the concentration that inhibits the measured activity by half. What is called DC50 is the concentration giving 50% degradation.

Sequence of GSPT1 (P15170 whole entry): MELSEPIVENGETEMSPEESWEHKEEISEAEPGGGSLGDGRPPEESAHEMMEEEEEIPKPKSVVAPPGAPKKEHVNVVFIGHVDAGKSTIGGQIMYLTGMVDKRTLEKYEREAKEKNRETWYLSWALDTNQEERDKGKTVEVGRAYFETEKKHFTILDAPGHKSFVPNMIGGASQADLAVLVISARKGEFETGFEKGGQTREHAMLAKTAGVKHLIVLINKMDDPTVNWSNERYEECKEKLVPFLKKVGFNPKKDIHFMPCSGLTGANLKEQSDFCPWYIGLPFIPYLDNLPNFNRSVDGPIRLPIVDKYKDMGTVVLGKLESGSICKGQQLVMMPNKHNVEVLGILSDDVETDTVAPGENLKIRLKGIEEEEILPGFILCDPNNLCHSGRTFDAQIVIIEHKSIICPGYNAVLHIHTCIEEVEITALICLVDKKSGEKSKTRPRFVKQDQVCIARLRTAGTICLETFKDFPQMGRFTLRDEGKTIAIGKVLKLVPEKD
Sequence of GSPT1 (Q96SW2 whole entry): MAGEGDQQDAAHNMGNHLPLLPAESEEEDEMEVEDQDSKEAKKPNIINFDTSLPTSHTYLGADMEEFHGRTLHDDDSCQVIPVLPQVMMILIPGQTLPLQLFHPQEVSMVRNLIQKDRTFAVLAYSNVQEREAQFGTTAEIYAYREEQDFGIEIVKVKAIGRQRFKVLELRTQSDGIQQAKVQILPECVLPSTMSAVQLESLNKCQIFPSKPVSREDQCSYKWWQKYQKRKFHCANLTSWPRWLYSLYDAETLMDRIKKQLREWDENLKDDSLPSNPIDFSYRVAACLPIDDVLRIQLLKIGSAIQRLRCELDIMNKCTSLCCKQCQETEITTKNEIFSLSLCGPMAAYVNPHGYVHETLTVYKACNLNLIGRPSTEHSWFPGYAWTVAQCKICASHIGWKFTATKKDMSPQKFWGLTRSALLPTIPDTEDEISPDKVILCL
Sequence of GSPT1 (Q16531 whole entry partner): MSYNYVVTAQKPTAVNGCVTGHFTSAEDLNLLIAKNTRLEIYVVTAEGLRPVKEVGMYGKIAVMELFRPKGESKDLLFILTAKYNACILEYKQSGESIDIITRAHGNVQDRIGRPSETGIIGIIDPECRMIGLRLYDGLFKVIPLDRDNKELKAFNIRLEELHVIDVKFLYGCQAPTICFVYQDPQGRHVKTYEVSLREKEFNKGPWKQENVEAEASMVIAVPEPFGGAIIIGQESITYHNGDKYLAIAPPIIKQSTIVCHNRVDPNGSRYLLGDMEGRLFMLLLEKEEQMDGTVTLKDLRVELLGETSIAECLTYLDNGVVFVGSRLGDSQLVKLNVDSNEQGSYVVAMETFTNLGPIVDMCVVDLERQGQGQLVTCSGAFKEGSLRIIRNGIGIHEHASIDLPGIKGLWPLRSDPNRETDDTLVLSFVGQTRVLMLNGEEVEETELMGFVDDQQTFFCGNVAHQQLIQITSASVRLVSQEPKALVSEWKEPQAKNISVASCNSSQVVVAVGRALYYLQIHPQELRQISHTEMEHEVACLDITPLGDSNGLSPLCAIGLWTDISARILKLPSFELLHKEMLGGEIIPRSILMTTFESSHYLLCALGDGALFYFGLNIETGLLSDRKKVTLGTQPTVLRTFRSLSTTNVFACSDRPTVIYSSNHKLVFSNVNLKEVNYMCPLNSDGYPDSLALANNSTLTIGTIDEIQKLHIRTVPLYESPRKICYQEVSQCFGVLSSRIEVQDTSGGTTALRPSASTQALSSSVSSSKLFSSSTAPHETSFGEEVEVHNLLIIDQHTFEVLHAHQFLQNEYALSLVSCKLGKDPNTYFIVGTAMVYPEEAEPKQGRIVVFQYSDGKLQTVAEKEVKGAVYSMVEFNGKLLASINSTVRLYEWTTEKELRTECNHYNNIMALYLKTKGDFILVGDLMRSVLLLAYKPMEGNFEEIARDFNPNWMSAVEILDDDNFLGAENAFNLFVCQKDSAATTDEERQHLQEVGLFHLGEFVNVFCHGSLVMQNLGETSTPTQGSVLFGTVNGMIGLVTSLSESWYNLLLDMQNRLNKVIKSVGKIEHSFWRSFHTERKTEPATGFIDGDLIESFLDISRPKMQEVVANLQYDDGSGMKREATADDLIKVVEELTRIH
Sequence of Full length wild-type cereblon CRBN (Q96SW2 whole entry): as the sequence (Q96SW2 whole entry) above

As for `O=C1CCC(N2Cc3ccc(COC(=O)Nc4cc(OC(F)(F)F)ccc4F)cc3C2=O)C(=O)N1` (centres unmarked) [Form I, (2-(2,6-dioxopiperidin-3-yl)-3-oxoisoindolin-5-yl)methyl (2-fluoro-5-(trifluoromethoxy)phenyl)carbamate], the “crystal form of remained solid in all media” value in series [1] (37° C., after 1, 4 and 24 hours, XRPD (FIG. 5)) was “unchanged”. Moreover, the solubility was < 1 µg/mL in series [1] (aqueous solution, 37 °C, aqueous buffer, thermodynamic from solid, about pH 6 to 7, read-out: solubility in an aqueous solution) and < 1 µg/mL in series [1] (water, 37 °C, water, thermodynamic from solid, read-out: solubility in water). The “pH(24 h)” value in series [1] (pH of filtrate, H2O, 37° C., 24 h) was 6.35 and 6.61 and 6.41. In series [1] (remained solid, H2O, 37° C., 24 h), the “XRPD(24 h)” value is “Form I”. Besides, the solubility at 1 h in series [1] (water, 37 °C, thermodynamic from solid, H2O, 1 h, triplicate H2O-1 to H2O-3) was < 1 µg/mL. In addition, the solubility at 4 h in series [1] (water, 37 °C, thermodynamic from solid, H2O, 4 h, triplicate H2O-1 to H2O-3) is < 1 µg/mL. In addition, the solubility at 24 h in series [1] (water, 37 °C, thermodynamic from solid, H2O, 24 h, triplicate H2O-1 to H2O-3) is < 1 µg/mL. In addition, the hygroscopicity result in series [2] is given as “nonhydroscopic”. Moreover, the “physical and chemical stability” value in series [3] was “good physical and chemical stability”; in series [3] (listed as Crystalline Form I), “physically and chemically stable”; in series [3] (listed as crystalline Form I) it was “no obvious degradation nor form change”. Further, the Purity in series [3] (25° C./60% RH, 1 day) was found to be 100%; in series [3] (25° C./60% RH, 7 day) it was 100%; in series [3] (40° C./75% RH, 1 day) it was 100%; in series [3] (40° C./75% RH, 7 day), 99.95%. Besides, the XRPD result in series [3] (25° C./60% RH, 1 day) was “Form I”; in series [3] (25° C./60% RH, 7 day) it was “Form I”; in series [3] (40° C./75% RH, 1 day), “Form I”; in series [3] (40° C./75% RH, 7 day) it was “Form I”. Further, the Purity-T0 in series [3] (T0 (day 0), HPLC) came out at 100%.

As for `O=C1CCC(N2Cc3ccc(COC(=O)Nc4cc(OC(F)(F)F)ccc4F)cc3C2=O)C(=O)N1` (centres unmarked) [Compound 145, (2-(2,6-dioxopiperidin-3-yl)-3-oxoisoindolin-5-yl)methyl (2-fluoro-5-(trifluoromethoxy)phenyl)carbamate], the IC50 in series [4] fell in the range of 0.5 to 1.1 µM. The molecule further yielded a half-maximal degradation concentration (DC50) at GSPT1 of 0.03 to 0.3 µM.

Values taken from patent publication US20250257048A1, “METHODS OF PREPARING AN ISOINDOLINONE DERIVATIVE AND CRYSTAL FORMS THEREOF” (Monte Rosa Therapeutics, Inc., priority 2022, published 2025).
